From the NIST ThermoML archive (doi:10.1016/j.jct.2005.09.003)
Numbers after ± are expanded uncertainties.

Experiment: xn = mol fraction of the nth substance listed
Conditions: Liquid

CCCCCCCl [1-chlorohexane] + CCCCCCCC
mass density [kg/m3]
Conditions	x2 = 0	x2 = 0.1016	x2 = 0.1996	x2 = 0.3153	x2 = 0.3948	x2 = 0.4862	x2 = 0.5938	x2 = 0.6966	x2 = 0.794	x2 = 0.9001
298.15 K, 39620 kPa	–	–	–	–	–	–	–	–	–	741.83 ± 2.1
308.15 K, 100 kPa	863.99 ± 0.45	843.29 ± 0.46	824.06 ± 0.47	802.22 ± 0.49	787.75 ± 0.5	771.63 ± 0.52	753.33 ± 0.54	736.52 ± 0.57	721.15 ± 0.59	705.03 ± 0.61
308.15 K, 2130 kPa	865.56 ± 0.48	845 ± 0.5	825.77 ± 0.52	803.94 ± 0.54	789.46 ± 0.56	773.39 ± 0.59	755.1 ± 0.62	738.36 ± 0.65	722.94 ± 0.67	706.75 ± 0.7
308.15 K, 4150 kPa	867.35 ± 0.51	846.81 ± 0.53	827.59 ± 0.56	805.76 ± 0.6	791.31 ± 0.62	775.22 ± 0.65	756.95 ± 0.69	740.19 ± 0.72	724.76 ± 0.75	708.57 ± 0.79
308.15 K, 6180 kPa	869.15 ± 0.53	848.61 ± 0.56	829.39 ± 0.6	807.57 ± 0.65	793.1 ± 0.68	777.03 ± 0.71	758.74 ± 0.76	742 ± 0.79	726.58 ± 0.83	710.37 ± 0.87
308.15 K, 8210 kPa	870.9 ± 0.56	850.37 ± 0.6	831.16 ± 0.65	809.34 ± 0.7	794.85 ± 0.74	778.81 ± 0.78	760.51 ± 0.82	743.77 ± 0.87	728.34 ± 0.91	712.11 ± 0.95
308.15 K, 10230 kPa	872.61 ± 0.59	852.08 ± 0.64	832.88 ± 0.69	811.05 ± 0.75	796.6 ± 0.79	780.52 ± 0.84	762.22 ± 0.89	745.47 ± 0.94	730.04 ± 0.99	713.8 ± 1
308.15 K, 11250 kPa	873.47 ± 0.6	852.95 ± 0.66	833.74 ± 0.71	811.91 ± 0.78	797.46 ± 0.82	781.38 ± 0.87	763.1 ± 0.92	746.33 ± 0.98	730.91 ± 1	714.66 ± 1.1
308.15 K, 12260 kPa	874.3 ± 0.62	853.78 ± 0.68	834.58 ± 0.73	812.74 ± 0.8	798.31 ± 0.85	782.22 ± 0.9	763.93 ± 0.96	747.17 ± 1	731.72 ± 1.1	715.48 ± 1.1
308.15 K, 14290 kPa	875.96 ± 0.65	855.47 ± 0.71	836.25 ± 0.78	814.43 ± 0.85	799.98 ± 0.9	783.88 ± 0.96	765.62 ± 1	748.84 ± 1.1	733.37 ± 1.1	717.14 ± 1.2
308.15 K, 16310 kPa	877.59 ± 0.68	857.09 ± 0.75	837.88 ± 0.82	816.06 ± 0.9	801.61 ± 0.96	785.51 ± 1	767.22 ± 1.1	750.45 ± 1.1	735 ± 1.2	718.74 ± 1.3
308.15 K, 18340 kPa	879.2 ± 0.7	858.68 ± 0.78	839.49 ± 0.86	817.66 ± 0.95	803.22 ± 1	787.12 ± 1.1	768.81 ± 1.1	752.06 ± 1.2	736.58 ± 1.3	720.34 ± 1.4
308.15 K, 20370 kPa	880.78 ± 0.73	860.28 ± 0.82	841.08 ± 0.9	819.25 ± 1	–	–	–	–	–	–
